Test results reported in patent publication US9328374B2, “Selective culture medium and method for detecting carbapenem-resistant bacteria in a test sample” (Institut National de la Sante et de la Recherche Medicale …, priority 2011, dated 2016).

Key:
K. pneumoniae = assay: MIC of imipenem, ertapenem and meropenem; type: cell-based, Klebsiella pneumoniae
P. mirabilis = assay: MIC of imipenem, ertapenem and meropenem; type: cell-based

Structure (SMILES): C[C@@H](O)[C@H]1C(=O)N2C(C(=O)O)=C(SCCN=CN)C[C@H]12 [IPM, imipenem]
- MIC (K. pneumoniae; K. pneumoniae LEG (CTX-M-15 + TEM-1 + SHV-12)): 0.75 µg/mL
- MIC (K. pneumoniae; K. pneumoniae LEG, CTX-M-15 + TEM-1 + SHV-12, non-carbapenemase producer, porin deficiency): 0.75 µg/mL
- MIC (K. pneumoniae; K. pneumoniae LIB (OXA-48)): >32 µg/mL
- MIC (K. pneumoniae; K. pneumoniae LIB, OXA-48): 16 µg/mL
- MIC (K. pneumoniae; K. pneumoniae LIE, KPC-2 + TEM-2 + OXA-9): >32 µg/mL
- MIC (K. pneumoniae; K. pneumoniae LOU, OXA-48): 4 µg/mL
- MIC (K. pneumoniae; K. pneumoniae MAD (VIM-1 + CTX-M-3)): 1 µg/mL
- MIC (K. pneumoniae; K. pneumoniae MAD, VIM-1+ CTX-M-3): 1 µg/mL
- MIC (K. pneumoniae; K. pneumoniae MEK (CTX-M-15 + SHV-11)): 1.5 µg/mL
- MIC (K. pneumoniae; K. pneumoniae MEK, CTX-M-15 + SHV-11, non-carbapenemase producer, porin deficiency): 1.5 µg/mL
- MIC (K. pneumoniae; K. pneumoniae MUS (KPC-2 + TEM-1 + SHV-11 + SHV-12)): 0.75 µg/mL
- MIC (K. pneumoniae; K. pneumoniae MUS, KPC-2 + TEM-1 + SHV-11 + SHV-12): 0.75 µg/mL
- MIC (K. pneumoniae; K. pneumoniae OM2 (NDM-1 + TEM-1 + CTX-M-3 + SHV-11 + OXA-1)): 0.75 µg/mL
- MIC (K. pneumoniae; K. pneumoniae OM2, NDM-1 + TEM-1 + CTX-M-3 + SHV-11 + OXA-1): 0.75 µg/mL
- MIC (K. pneumoniae; K. pneumoniae OM4, NDM-1 + TEM-1 + CTX-M-15 + SHV-12 + OXA-9): 4 µg/mL
- MIC (K. pneumoniae; K. pneumoniae OM8, NDM-1 + TEM-1 + CTX-M-15 + SHV-11 + OXA-1): 2 µg/mL
- MIC (K. pneumoniae; K. pneumoniae OM11, OXA-48 + TEM-1 + CTX-M-14): 0.5 µg/mL
- MIC (K. pneumoniae; K. pneumoniae OM13, NDM-1 + TEM-1 + CTX-M-15 + SHV-28 + OXA-1 + OXA-9): 3 µg/mL
- MIC (K. pneumoniae; K. pneumoniae OM14, OXA-48 + TEM-1): 0.5 µg/mL
- MIC (K. pneumoniae; K. pneumoniae OM15, NDM-1 + CTX-M-15 + SHV-130 + OXA-1): 1.5 µg/mL
- MIC (K. pneumoniae; K. pneumoniae OM16, NDM-1 + CTX-M-15 + OXA-1 + OXA-181): 8 µg/mL
- MIC (K. pneumoniae; K. pneumoniae OM19, NDM-1 + CTX-M-15 + SHV-12 + OXA-1): 4 µg/mL
- MIC (K. pneumoniae; K. pneumoniae OMA419 (NDM-1 + OXA-1)): 1.5 µg/mL
- MIC (K. pneumoniae; K. pneumoniae OMA419, NDM-1 + OXA-1): 1.5 µg/mL
- MIC (K. pneumoniae; K. pneumoniae OMA601, NDM-1 + CTX-M-15 + OXA-1 + OXA-9): >32 µg/mL
- MIC (K. pneumoniae; K. pneumoniae OMA (OXA-181 + CTX-M-15 + OXA-1)): 0.5 µg/mL
- MIC (K. pneumoniae; K. pneumoniae OMA, OXA-181 + CTXM-15 + OXA-1): 0.5 µg/mL
- MIC (K. pneumoniae; K. pneumoniae RAM (OXA-48)): 1 µg/mL
- MIC (K. pneumoniae; K. pneumoniae RAM, OXA-48): 1 µg/mL
- MIC (K. pneumoniae; K. pneumoniae ROB (OXA-48 + CTX-M-15 + TEM-1)): 0.38 µg/mL
- MIC (K. pneumoniae; K. pneumoniae ROU (OXA-48 + CTX-M-15)): 0.5 µg/mL
- MIC (K. pneumoniae; K. pneumoniae ROU, OXA-48 + CTX-M-15): 0.5 µg/mL
- MIC (K. pneumoniae; K. pneumoniae SCO (OXA-48)): 0.5 µg/mL
- MIC (K. pneumoniae; K. pneumoniae SCO, OXA-48): 0.5 µg/mL
- MIC (K. pneumoniae; K. pneumoniae SHI (CTX-M-15 + TEM-1 + SHV-1)): 0.25 µg/mL
- MIC (K. pneumoniae; K. pneumoniae SHI, CTX-M-15 + TEM-1 + SHV-11, non-carbapenemase producer, porin deficiency): 0.25 µg/mL
- MIC (K. pneumoniae; K. pneumoniae SHM (CTX-M-15 + TEM-1 + SHV-11)): 3 µg/mL
- MIC (K. pneumoniae; K. pneumoniae SHM, CTX-M-15 + TEM-1 + SHV-11, non-carbapenemase producer, porin deficiency): 3 µg/mL
- MIC (K. pneumoniae; K. pneumoniae SIC (OXA-48 + CTX-M-15 + SHV-28)): 0.25 µg/mL
- MIC (K. pneumoniae; K. pneumoniae SIC, OXA-48 + CTX-M-15 + SHV-28): 0.25 µg/mL
- MIC (K. pneumoniae; K. pneumoniae SIM (CTX-M-15 + TEM-1 + SHV-1)): 8 µg/mL
- MIC (K. pneumoniae; K. pneumoniae SIM, CTX-M-15 + TEM-1 + SHV-1, non-carbapenemase producer, porin deficiency): 8 µg/mL
- MIC (K. pneumoniae; K. pneumoniae TAW, IMP-8 + SHV-12): 0.5 µg/mL
- MIC (K. pneumoniae; K. pneumoniae TIK, OXA-48): 0.75 µg/mL
- MIC (K. pneumoniae; K. pneumoniae TUR (IMP-1)): 1 µg/mL
- MIC (K. pneumoniae; K. pneumoniae TUR, IMP-1): 1 µg/mL
- MIC (K. pneumoniae; K. pneumoniae TWA, IMP-8): 1 µg/mL
- MIC (K. pneumoniae; K. pneumoniae UK (NDM-1 + CTX-M-15 + CMY-4 + OXA-1)): >32 µg/mL
- MIC (K. pneumoniae; K. pneumoniae UK, NDM-1 + CTX-M-15 + CMY-4 + OXA-1): >32 µg/mL
- MIC (K. pneumoniae; K. pneumoniae VER, OXA-48 + TEM-1 + CTX-M-15 + SHV-11): 0.38 µg/mL
- MIC (K. pneumoniae; K. pneumoniae VSG (OXA-48 + TEM-1 + CTX-M-15 + OXA-1)): 0.75 µg/mL
- MIC (K. pneumoniae; K. pneumoniae VSG, OXA-48 + TEM-1 + CTX-M-15 + OXA-1): 0.75 µg/mL
- MIC (K. pneumoniae; K. pneumoniae YC, KPC-2 + TEM-1 + SHV-11 + SHV-12 + OXA-9): 4 µg/mL
- MIC (K. pneumoniae; strain K. pneumoniae 7725, SHV-1, non-carbapenemase producer): 0.19 µg/mL
- MIC (K. pneumoniae; strain K. pneumoniae 648236, SHV-2a, non-carbapenemase producer): 0.25 µg/mL
- MIC (K. pneumoniae; strain K. pneumoniae ALE, CTX-M-15 + SHV-1, non-carbapenemase producer): 1 µg/mL
- MIC (K. pneumoniae; strain K. pneumoniae AMS, OXA-48 + TEM-1 + CTX-M-15 + OXA-1): 0.5 µg/mL
- MIC (K. pneumoniae; strain K. pneumoniae BAJ, OXA-48 + TEM-1 + CTX-M-15 + SHV-28): 0.5 µg/mL
- MIC (K. pneumoniae; strain K. pneumoniae BED, CTX-M-15 + TEM-1 + SHV-11, non-carbapenemase producer): 1.5 µg/mL
- MIC (K. pneumoniae; strain K. pneumoniae BEL, OXA-48): 1 µg/mL
- MIC (K. pneumoniae; strain K. pneumoniae BEN, OXA-48 + TEM-1 + CTX-M-15 + SHV-28): 0.38 µg/mL
- MIC (K. pneumoniae; strain K. pneumoniae BER, SHV-28 + TEM-1, non-carbapenemase producer): 1 µg/mL
- MIC (K. pneumoniae; strain K. pneumoniae ELK, OXA-48 + TEM-1 + CTX-M-15 + SHV-11): 0.5 µg/mL
- MIC (K. pneumoniae; strain K. pneumoniae HOL, OXA-181 + CTX-M-15): 1 µg/mL
- MIC (K. pneumoniae; strain K. pneumoniae MUS, KPC-2 + TEM-1 + SHV-11 + SHV-12): 0.75 µg/mL
- MIC (K. pneumoniae; strain K. pneumoniae OM2, NDM-1 + TEM-1 + CTX-M-3 + SHV-11 + OXA-1): 0.75 µg/mL
- MIC (K. pneumoniae; strain K. pneumoniae OMA419, NDM-1 + OXA-1): 1.5 µg/mL
- MIC (K. pneumoniae; strain K. pneumoniae OMA, OXA-181 + CTXM-15 + OXA-1): 0.5 µg/mL
- MIC (K. pneumoniae; strain K. pneumoniae ROU, OXA-48 + CTX-M-15): 0.5 µg/mL
- MIC (K. pneumoniae; strain K. pneumoniae SCO, OXA-48): 0.5 µg/mL
- MIC (K. pneumoniae; strain K. pneumoniae SIC, OXA-48 + CTX-M-15 + SHV-28): 0.25 µg/mL
- MIC (K. pneumoniae; strain K. pneumoniae VSG, OXA-48 + TEM-1 + CTX-M-15 + OXA-1): 0.75 µg/mL
- MIC (P. mirabilis; P. mirabilis 1031 (CTX-M-14 + TEM-1 + SHV-11)): 1.5 µg/mL
- MIC (P. mirabilis; P. mirabilis 1031, CTX-M-14 + TEM-1 + SHV-11, non-carbapenemase producer): 1.5 µg/mL
- MIC (P. mirabilis; P. mirabilis PMA (ACC-1)): 0.25 µg/mL
- MIC (P. mirabilis; P. mirabilis PMA, ACC-1, non-carbapenemase producer): 0.25 µg/mL
